Key:
Test in all cases: B2 Post-Emergence Efficacy - Test 2
Type in all cases: in vivo
[1] = tested on: Echinochloa crus galli (ECHCG); details: 15 days after application, 0=no damage, 100=total kill
Outline: (§1)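 A 0–100 damage rating taken 15 days after application. Plants: 12 days old at spraying, glasshouse-grown (16 h light, 65% humidity, day/night 24/18 or 20/16 °C), watered twice daily. Spray: aqueous IF50 formulation, 0.2% v/v Genapol X080.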

[2] = tested on: Digitaria sanguinalis (DIGSA); details: 15 days after application, 0=no damage, 100=total kill
Outline: as §1

Sorghum bicolour (SORVU) = details: 15 days after application, 0=no damage, 100=total kill
Outline: as §1

Eleisine indica (ELEIN) = details: 15 days after application, 0=no damage, 100=total kill
Outline: as §1

Bidens pilosa (BIDPI) = details: 15 days after application, 0-100 scale
Outline: as §1

Hordeum vulgare (HORVW) = details: 15 days after application, 0-100 scale
Outline: as §1

Lolium perenne (LOLPE) = details: 15 days after application, 0-100 scale
Outline: as §1

Bromus tectorum (BROTE) = details: 15 days after application, 0-100 scale
Outline: as §1

Setaria faberi (SETFA) = details: 15 days after application, 0=no damage, 100=total kill
Outline: as §1

[3] = tested on: Brachiaria plantaginea (BRAPL); details: 15 days after application, 0=no damage, 100=total kill
Outline: as §1

Sinapis arvensis (SINAR) = details: 15 days after application, 0-100 scale
Outline: as §1

[4] = tested on: Alopecurus myosuroides (ALOMY); details: 15 days after application, 0-100 scale
Outline: as §1

[5] = tested on: Euphorbia hetrophylla (EPHHL); details: 15 days after application, 0-100 scale
Outline: as §1

[6] = tested on: Triticum aestivum (TRZAW); details: 15 days after application, 0-100 scale
Outline: as §1

[7] = tested on: Chenopodium album (CHEAL); details: 15 days after application, 0-100 scale
Outline: as §1

[8] = tested on: Abutilon theophrasti (ABUTH); details: 15 days after application, 0-100 scale
Outline: as §1

Zea mays (ZEAMX) = details: 15 days after application; for Herbicidal activity ZEAMX: 0-100 scale; for Herbicidal activity on a 0-100 scale, ZEAMX: 0=no damage, 100=total kill
Outline: as §1

Stellaria media (STEME) = details: 15 days after application, 0-100 scale
Outline: as §1

Cc1nn(C)c(=O)c(-c2c(F)ccc(Cl)c2CCc2ccc(C(F)(F)F)nc2)c1O [Compound 1.042, 4-[3-chloro-6-fluoro-2-[2-[6-(trifluoromethyl)-3-pyridyl]ethyl]phenyl]-5-hydroxy-2,6-dimethyl-pyridazin-3-one]
Herbicidal activity on a 0-100 scale, ECHCG ([1]; 15 g/Ha): 80 | Herbicidal activity on a 0-100 scale, ECHCG ([1]; 30 g/Ha): 90 | Herbicidal activity on a 0-100 scale, ECHCG ([1]; 60 g/Ha): 90 | Herbicidal activity on a 0-100 scale, ECHCG ([1]; 125 g/Ha): 90 | Herbicidal activity on a 0-100 scale, ECHCG ([1]; 250 g/Ha): 100 | Herbicidal activity on a 0-100 scale, ECHCG ([1]; 500 g/Ha): 100 | Herbicidal activity on a 0-100 scale, DIGSA ([2]; 15 g/Ha): 0 | Herbicidal activity on a 0-100 scale, DIGSA ([2]; 30 g/Ha): 60 | Herbicidal activity on a 0-100 scale, DIGSA ([2]; 60 g/Ha): 70 | Herbicidal activity on a 0-100 scale, DIGSA ([2]; 125 g/Ha): 70 | Herbicidal activity on a 0-100 scale, DIGSA ([2]; 250 g/Ha): 80 | Herbicidal activity on a 0-100 scale, DIGSA ([2]; 500 g/Ha): 90 | Herbicidal activity on a 0-100 scale, SORVU (Sorghum bicolour (SORVU); 15 g/Ha): 0 | Herbicidal activity on a 0-100 scale, SORVU (Sorghum bicolour (SORVU); 30 g/Ha): 70 | Herbicidal activity on a 0-100 scale, SORVU (Sorghum bicolour (SORVU); 60 g/Ha): 80 | Herbicidal activity on a 0-100 scale, SORVU (Sorghum bicolour (SORVU); 125 g/Ha): 90 | Herbicidal activity on a 0-100 scale, SORVU (Sorghum bicolour (SORVU); 250 g/Ha): 90 | Herbicidal activity on a 0-100 scale, SORVU (Sorghum bicolour (SORVU); 500 g/Ha): 100 | Herbicidal activity on a 0-100 scale, ELEIN (Eleisine indica (ELEIN); 15 g/Ha): 0 | Herbicidal activity on a 0-100 scale, ELEIN (Eleisine indica (ELEIN); 30 g/Ha): 70 | Herbicidal activity on a 0-100 scale, ELEIN (Eleisine indica (ELEIN); 60 g/Ha): 70 | Herbicidal activity on a 0-100 scale, ELEIN (Eleisine indica (ELEIN); 125 g/Ha): 80 | Herbicidal activity on a 0-100 scale, ELEIN (Eleisine indica (ELEIN); 250 g/Ha): 80 | Herbicidal activity on a 0-100 scale, ELEIN (Eleisine indica (ELEIN); 500 g/Ha): 90 | Herbicidal activity BIDPI (Bidens pilosa (BIDPI); 15 g/Ha): 70 | Herbicidal activity BIDPI (Bidens pilosa (BIDPI); 30 g/Ha): 70 | Herbicidal activity BIDPI (Bidens pilosa (BIDPI); 60 g/Ha): 70 | Herbicidal activity BIDPI (Bidens pilosa (BIDPI); 125 g/Ha): 70 | Herbicidal activity BIDPI (Bidens pilosa (BIDPI); 250 g/Ha): 80 | Herbicidal activity BIDPI (Bidens pilosa (BIDPI); 500 g/Ha): 90 | Herbicidal activity HORVW (Hordeum vulgare (HORVW); 15 g/Ha): 10 | Herbicidal activity HORVW (Hordeum vulgare (HORVW); 30 g/Ha): 20 | Herbicidal activity HORVW (Hordeum vulgare (HORVW); 60 g/Ha): 20 | Herbicidal activity HORVW (Hordeum vulgare (HORVW); 125 g/Ha): 40 | Herbicidal activity HORVW (Hordeum vulgare (HORVW); 250 g/Ha): 80 | Herbicidal activity HORVW (Hordeum vulgare (HORVW); 500 g/Ha): 80 | Herbicidal activity LOLPE (Lolium perenne (LOLPE); 15 g/Ha): 60 | Herbicidal activity LOLPE (Lolium perenne (LOLPE); 30 g/Ha): 70 | Herbicidal activity LOLPE (Lolium perenne (LOLPE); 60 g/Ha): 70 | Herbicidal activity LOLPE (Lolium perenne (LOLPE); 125 g/Ha): 90 | Herbicidal activity LOLPE (Lolium perenne (LOLPE); 250 g/Ha): 90 | Herbicidal activity LOLPE (Lolium perenne (LOLPE); 500 g/Ha): 90 | Herbicidal activity BROTE (Bromus tectorum (BROTE); 15 g/Ha): 20 | Herbicidal activity BROTE (Bromus tectorum (BROTE); 30 g/Ha): 30 | Herbicidal activity BROTE (Bromus tectorum (BROTE); 60 g/Ha): 70 | Herbicidal activity BROTE (Bromus tectorum (BROTE); 125 g/Ha): 80 | Herbicidal activity BROTE (Bromus tectorum (BROTE); 250 g/Ha): 80 | Herbicidal activity BROTE (Bromus tectorum (BROTE); 500 g/Ha): 90 | Herbicidal activity on a 0-100 scale, SETFA (Setaria faberi (SETFA); 15 g/Ha): 40 | Herbicidal activity on a 0-100 scale, SETFA (Setaria faberi (SETFA); 30 g/Ha): 80 | Herbicidal activity on a 0-100 scale, SETFA (Setaria faberi (SETFA); 60 g/Ha): 90 | Herbicidal activity on a 0-100 scale, SETFA (Setaria faberi (SETFA); 125 g/Ha): 90 | Herbicidal activity on a 0-100 scale, SETFA (Setaria faberi (SETFA); 250 g/Ha): 90 | Herbicidal activity on a 0-100 scale, SETFA (Setaria faberi (SETFA); 500 g/Ha): 100 | Herbicidal activity on a 0-100 scale, BRAPL ([3]; 15 g/Ha): 80 | Herbicidal activity on a 0-100 scale, BRAPL ([3]; 30 g/Ha): 80 | Herbicidal activity on a 0-100 scale, BRAPL ([3]; 60 g/Ha): 90 | Herbicidal activity on a 0-100 scale, BRAPL ([3]; 125 g/Ha): 90 | Herbicidal activity on a 0-100 scale, BRAPL ([3]; 250 g/Ha): 90 | Herbicidal activity on a 0-100 scale, BRAPL ([3]; 500 g/Ha): 90 | Herbicidal activity SINAR (Sinapis arvensis (SINAR); 15 g/Ha): 80 | Herbicidal activity SINAR (Sinapis arvensis (SINAR); 30 g/Ha): 90 | Herbicidal activity SINAR (Sinapis arvensis (SINAR); 60 g/Ha): 90 | Herbicidal activity SINAR (Sinapis arvensis (SINAR); 125 g/Ha): 90 | Herbicidal activity SINAR (Sinapis arvensis (SINAR); 250 g/Ha): 90 | Herbicidal activity SINAR (Sinapis arvensis (SINAR); 500 g/Ha): 90 | Herbicidal activity ALOMY ([4]; 15 g/Ha): 20 | Herbicidal activity ALOMY ([4]; 30 g/Ha): 60 | Herbicidal activity ALOMY ([4]; 60 g/Ha): 80 | Herbicidal activity ALOMY ([4]; 125 g/Ha): 80 | Herbicidal activity ALOMY ([4]; 250 g/Ha): 90 | Herbicidal activity ALOMY ([4]; 500 g/Ha): 90 | Herbicidal activity EPHHL ([5]; 15 g/Ha): 80 | Herbicidal activity EPHHL ([5]; 30 g/Ha): 90 | Herbicidal activity EPHHL ([5]; 60 g/Ha): 90 | Herbicidal activity EPHHL ([5]; 125 g/Ha): 100 | Herbicidal activity EPHHL ([5]; 250 g/Ha): 100 | Herbicidal activity EPHHL ([5]; 500 g/Ha): 100 | Herbicidal activity TRZAW ([6]; 15 g/Ha): 20 | Herbicidal activity TRZAW ([6]; 30 g/Ha): 30 | Herbicidal activity TRZAW ([6]; 60 g/Ha): 60 | Herbicidal activity TRZAW ([6]; 125 g/Ha): 70 | Herbicidal activity TRZAW ([6]; 250 g/Ha): 80 | Herbicidal activity TRZAW ([6]; 500 g/Ha): 80 | Herbicidal activity CHEAL ([7]; 30 g/Ha): 90 | Herbicidal activity CHEAL ([7]; 60 g/Ha): 90 | Herbicidal activity CHEAL ([7]; 125 g/Ha): 90 | Herbicidal activity CHEAL ([7]; 250 g/Ha): 100 | Herbicidal activity CHEAL ([7]; 500 g/Ha): 100 | Herbicidal activity ABUTH ([8]; 15 g/Ha): 80 | Herbicidal activity ABUTH ([8]; 30 g/Ha): 90 | Herbicidal activity ABUTH ([8]; 60 g/Ha): 100 | Herbicidal activity ABUTH ([8]; 125 g/Ha): 100 | Herbicidal activity ABUTH ([8]; 250 g/Ha): 100 | Herbicidal activity ABUTH ([8]; 500 g/Ha): 100 | Herbicidal activity ZEAMX (Zea mays (ZEAMX); 15 g/Ha): 0 | Herbicidal activity on a 0-100 scale, ZEAMX (Zea mays (ZEAMX); 15 g/Ha): 0 | Herbicidal activity ZEAMX (Zea mays (ZEAMX); 30 g/Ha): 10 | Herbicidal activity on a 0-100 scale, ZEAMX (Zea mays (ZEAMX); 30 g/Ha): 10 | Herbicidal activity ZEAMX (Zea mays (ZEAMX); 60 g/Ha): 20 | Herbicidal activity on a 0-100 scale, ZEAMX (Zea mays (ZEAMX); 60 g/Ha): 20 | Herbicidal activity ZEAMX (Zea mays (ZEAMX); 125 g/Ha): 60 | Herbicidal activity on a 0-100 scale, ZEAMX (Zea mays (ZEAMX); 125 g/Ha): 60 | Herbicidal activity ZEAMX (Zea mays (ZEAMX); 250 g/Ha): 70 | Herbicidal activity on a 0-100 scale, ZEAMX (Zea mays (ZEAMX); 250 g/Ha): 70 | Herbicidal activity ZEAMX (Zea mays (ZEAMX); 500 g/Ha): 90 | Herbicidal activity on a 0-100 scale, ZEAMX (Zea mays (ZEAMX); 500 g/Ha): 90 | Herbicidal activity STEME (Stellaria media (STEME); 15 g/Ha): 100 | Herbicidal activity STEME (Stellaria media (STEME); 30 g/Ha): 100 | Herbicidal activity STEME (Stellaria media (STEME); 60 g/Ha): 90 | Herbicidal activity STEME (Stellaria media (STEME); 125 g/Ha): 100 | Herbicidal activity STEME (Stellaria media (STEME); 250 g/Ha): 100 | Herbicidal activity STEME (Stellaria media (STEME); 500 g/Ha): 100

Reference: US20230301300A1, “HERBICIDAL COMPOSITIONS” (SYNGENTA CROP PROTECTION AG, priority 2020, published 2023)
